{"source": "paper PMC3267017", "about": "“Design, synthesis and in vitro evaluation of novel bivalent S-adenosylmethionine analogues” (Bioorganic & Medicinal Chemistry Letters, 2012)", "key": {"[1]": {"target": "T1, MetJ dimer–DNA complex (F-metC) (Escherichia coli, UniProt P0A8U6)", "T1 sequence (P0A8U6 2-105, one chain of several)": "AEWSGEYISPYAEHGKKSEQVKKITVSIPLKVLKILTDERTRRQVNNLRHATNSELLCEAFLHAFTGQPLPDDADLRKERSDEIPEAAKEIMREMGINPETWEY", "design": "method as in PMID 19194573", "settings": "monovalent ligand 4, 2 mM; F-metC 10 nM; read-out: EC50, concentration of MetJ monomer required to promote half-maximal formation of its complex with the F-metC DNA; cited from earlier work"}, "[2]": {"target": "T1, MetJ dimer–DNA complex (F-metC)", "test": "Fluorescence anisotropy assay: MetJ titrated into F-metC DNA and ligand, MetJ dimer–DNA complex formation", "format": "binding", "settings": "for EC50: F-metC 10 nM, read-out: EC50, concentration of MetJ monomer required to promote half-maximal formation of its complex with the F-metC DNA", "excerpt": "A fluorescence anisotropy-based binding assay was used to compare the relative ability of SAM analogues to promote MetJ dimer–DNA complex formation. Since SAM has low affinity for MetJ in the absence of DNA,[8,13] measurements were made in the presence of the DNA fragment F-metC, a fluorescently-labeled analogue of the shortest naturally occurring operator sequence, metC.[14] Titration of MetJ into a solution containing fixed concentrations of F-metC and ligand allows the change in anisotropy related to ternary complex formation to be measured (Fig. 5).\nFigure 5 Cartoon illustrating the fluorescence anisotropy assay. The SAM molecules promote the formation of a SAM–F-metC–protein complex, with two MetJ dimers bound to the 18 base-pair DNA duplex.\nThe half-maximal concentration of MetJ, EC50, required to promote complex formation was determined for each ligand. […] The monovalent ligands 11 and 12 (2 mM) and the bivalent ligands 9 and 10 (1 mM) all promoted the formation of the MetJ–DNA complex (Table 1). […] The unquaternised bivalent ligands 9a–e (1 mM) promoted complex formation up to about threefold more effectively than the corresponding monovalent analogue 11. Similarly, the quaternised bivalent ligands 10a and 10b promoted, respectively, complex formation 2.4- and 3.6-fold more effectively than the quaternised monovalent analogue 12.\nAnalysis of novel SAM analogues binding to MetJ in the presence of operator DNA was carried out using fluorescence anisotropy. Fluorescence anisotropy experiments were performed on a Spex Fluorolog Tau spectrofluorometer (HORIBA Jobin Yvon) controlled by Datamax software. The excitation and emission wavelengths were set to 488 nm and 517 nm respectively. Slit widths were set to 5 nm and all experiments were carried out at 19 °C. The detector integration time was 5 seconds and three readings were taken of each sample to obtain an average anisotropy. Free anisotropy values were 0.051-0.060. Increase in fluorescence anisotropy was observed upon titration of MetJ into a solution of F-metC (10 nM) with and without ligand ([…]) in TK buffer pH 7.6 (50 mM Trizma hydrochloride pH 7.6, 100 mM KCl) with a total starting volume of 200 µL. […] The final DMSO concentration was 2% or less. After each addition, the sample was mixed with a pipette and left to equilibrate for five minutes before the fluorescence anisotropy readings were acquired. The intensity of linear and perpendicular light, compared to the excitation light is measured experimentally and the anisotropy was calculated using the following equation:‖\nThe data was fitted to a sigmoidal growth logistic model using the following equation: […]\nWhere A1 refers to the initial value, A2 refers to the final value, x0 refers to the centre and p is a value relating to the slope of the transition. Errors refer the standard deviation of three titration repeats. An arbitrary weighting function with the following equation was employed: […]"}}, "note": "Like-named read-outs stand apart in the source and are kept apart here."}
{"compound": "CCCNC(=O)CCCN(C)C[C@H]1O[C@@H](n2cnc3c(N)ncnc32)[C@H](O)[C@@H]1O", "note": "[Compound 4]", "values": [{"measurement": "EC50", "setting": "[1]", "result": "1000 ± 100", "unit": "nM"}]}
{"compound": "C[N+](C)(CCCC(=O)NCCCCCCNC(=O)CCC[N+](C)(C)C[C@H]1O[C@@H](n2cnc3c(N)ncnc32)[C@H](O)[C@@H]1O)C[C@H]1O[C@@H](n2cnc3c(N)ncnc32)[C@H](O)[C@@H]1O.[I-].[I-]", "note": "[Compound 19d, N,N′-Dimethyl-N,N′-di-[5′-deoxy-5′-N-methyl-N′-(4-butyryl)-adenosine]-1,6-diaminohexane diiodide]", "values": [{"measurement": "Fold-improvement over monovalent control 5", "setting": "[2]; quaternised ligands 2 mM", "result": "2.9-fold"}, {"measurement": "EC50", "setting": "[2]; quaternised ligands 2 mM, average of three titrations", "result": "51 ± 2", "unit": "nM"}]}
{"compound": "C[S+](CC[C@H](N)C(=O)[O-])C[C@H]1O[C@@H](n2cnc3c(N)ncnc32)[C@H](O)[C@@H]1O", "note": "(stereo partly shown) [SAM, 1, S-Adenosylmethionine]", "values": [{"measurement": "EC50", "setting": "[2]; SAM, ligand concentration not given, DMSO 2%", "result": "17.3 ± 0.3", "unit": "nM"}]}
